One test has as its target AChE (Homo sapiens, UniProt P22303). Kind of test: biochemical. The following applies: for Ki: Lineweaver-Burk curves; for Ki / IC50: means of triplicate assays ± SEM; for AChE inhibition type: from Lineweaver-Burk curves; for IC50: 30°C. How it is done: Reaction mixtures contained the 50 μL of 5,5′-dithio-bis(2-nitro-benzoic)acid compound (DTNB) and 100 μL of Tris–HCl solution (1 M, pH 8.0), and 20 μL AChE solution in total volume of 1 mL. The mixture was then incubated and mixed for 15 min at 30°C. Next, The reaction was started by adding 50 μL of acetylthiocholine iodide, and carried out for 5 min at 30°C. After adding substrate, the change in absorbance at 0 and 5 minutes was recorded at 412 nm.
AChE activities were determined at 30°C by using five concentrations of acetylthiocholine iodide and three concentrations of compounds.

For the next test, the system named is S. aureus. The test is described as follows: Antimicrobial test, broth microdilution MIC. As to conditions: Staphylococcus aureus, 24 h, read-out: Minimum inhibitory concentration, S. aureus. In kind it is cell-based, Staphylococcus aureus (ATCC 29213). How it is done: (§1) This study used standard strains of bacteria known to be resistant to antibiotics. These isolates were identified as three gram-positive bacteria: Bacillus subtilis, Staphylococcus aureus (ATCC 29213) and Enterococcus faecalis (ATCC 29212); and two Gram-negative bacteria: Escherichia coli (ATCC 25922) and Pseudomonas aeruginosa (ATCC 27853). The strains were grown in blood medium one night before the broth microdilution method was used. They were then passaged and stored in tryptic soy broth (TSB) at -20°C for repeat experiments. Bacterial strains were passaged in blood medium and incubated in an oven at 35 ± 2°C for 18–24 hours. At least 3–5 similar colonies were selected from the culture plate. These were picked up with a loop and transferred to 4–5 mL of liquid medium (e.g. tryptic soy broth). The broth was incubated at 35°C until the turbidity reached McFarland 0.5 (approximately 2–6 hours). The density of the culture in the broth was determined by preparing a bacterial solution with a McFarland density of 0.5. The microdilution method was used to determine MIC values. Standards were dissolved in DMSO. Positive controls were prepared with penicillin, fluconazole and gentamicin.
(§2) It was prepared at concentrations of 1, 2, 4, 8, 16, 32, 64, 128, 256 and 512 µg/mL. 1% DMSO was used as a solvent control. Compounds were spiked at initial test control concentrations of 250 µg/mL in MHB. MHB was added to all wells except the first well. 100 µl of compounds were added to the first well. Serial dilutions were then made and diluted to the minimum concentration (1 µg/ml). Then 0.5 McFarland was prepared from bacteria incubated in MHB for 1 night. Then 50 µl of bacterial suspension was added to each well. The plates were incubated at 37°C for 24 hours. The microplates were then read in the spectrophotometer at a wavelength of 620 nm.
(§3) 100 µl of MHB was added to each well of a 12-well U-bottom microplate. 100 μL of the previously prepared NHC precursor drug was taken and transferred to the first well, and 100 μL was taken again by pipetting and transferred to the second well. In this way, dilutions were made sequentially up to the 11th well. No NHC precursor was added to the 12th well, which was used as a positive control. Then 100 μL of the prepared 5 x 10^5 CFU/mL bacterial suspension was taken and added to all wells without adding to the 11th well. The 11th well was used as a negative control ([Demirhan et al., 2024]). The same study was performed for all NHC precursors. The microplates were then incubated at 35°C for 24 hours. The lowest concentration at which no growth occurred for all strains was determined as the MIC.
Background: In broth dilution the organism is exposed to a series of concentrations in liquid medium.

Another test has as its system E. faecalis. Kind of test: Antimicrobial test, broth microdilution MIC. As to conditions: Enterococcus faecalis, 24 hours, read-out: Minimum inhibitory concentration, E. faecalis. Format: cell-based, Enterococcus faecalis (ATCC 29212). On the procedure: as §1, §2, §3
A further test concerns E. coli. The test is described as follows: Antimicrobial test, broth microdilution MIC. The following applies: Escherichia coli, 24 hours, read-out: Minimum inhibitory concentration, E. coli. Format: cell-based, Escherichia coli (ATCC 25922). How it is done:
as §1, §2, §3

Another test deals with P. aeruginosa. The test is described as follows: Antimicrobial test, broth microdilution MIC. Format: cell-based, Pseudomonas aeruginosa (ATCC 27853). As to conditions: Pseudomonas aeruginosa, 24 hours, read-out: Minimum inhibitory concentration, P. aeruginosa. How it is done:
as §1, §2, §3

The term Ki denotes the dissociation constant of the complex between target and ligand, obtained from inhibition or displacement. Read a low Ki as a stronger hold on the target. By IC50 is commonly meant the concentration that inhibits the measured activity by half. Lower therefore signals higher potency.

Sequence of AChE (P22303 32-614): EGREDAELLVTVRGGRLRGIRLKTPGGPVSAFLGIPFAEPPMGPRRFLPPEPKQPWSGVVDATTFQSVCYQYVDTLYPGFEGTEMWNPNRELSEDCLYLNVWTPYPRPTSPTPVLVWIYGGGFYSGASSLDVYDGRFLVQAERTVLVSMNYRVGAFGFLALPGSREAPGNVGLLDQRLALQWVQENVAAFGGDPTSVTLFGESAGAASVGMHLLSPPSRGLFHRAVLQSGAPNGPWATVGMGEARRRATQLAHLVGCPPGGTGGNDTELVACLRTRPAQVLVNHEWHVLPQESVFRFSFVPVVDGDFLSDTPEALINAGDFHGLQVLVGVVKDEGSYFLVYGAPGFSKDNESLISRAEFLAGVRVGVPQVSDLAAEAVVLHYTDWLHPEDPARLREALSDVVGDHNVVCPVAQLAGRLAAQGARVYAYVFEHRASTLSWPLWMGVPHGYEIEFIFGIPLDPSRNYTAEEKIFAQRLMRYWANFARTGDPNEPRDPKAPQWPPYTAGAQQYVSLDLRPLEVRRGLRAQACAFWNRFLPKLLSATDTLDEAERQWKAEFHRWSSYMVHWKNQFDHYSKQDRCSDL

`CC(=O)c1ccc(-n2cc[n+](CCN3CCOCC3)c2)cc1.Cl.[Cl-]` [Compound 1a, 1-(4-acetylphenyl)-3-(2-morpholino)ethylimidazolium chloride hydrochloride] showed a Ki on AChE of 11200 ± 1050 nM. Further, the AChE inhibition type entry on AChE is “Uncompetitive”. The molecule further returned an IC50 on AChE of 14800 ± 820 nM. Besides, the MIC with S. aureus turned out to be 25 µg/mL; in the test on E. faecalis it was 50 µg/mL; in the test with E. coli, 200 µg/mL; in the test on P. aeruginosa, 200 µg/mL.

In turn, `CC(=O)c1ccc(-n2cc[n+](CCN3CCCCC3)c2)cc1.Cl.[Cl-]` [Compound 1b, 1-(4-acetylphenyl)-3-(2-piperidino)ethylimidazolium chloride hydrochloride] returned a Ki on AChE of 1690 ± 80 nM. For the same molecule, the AChE inhibition type entry on AChE is listed as “Uncompetitive”. This molecule displayed an IC50 against AChE of 2210 ± 160 nM. For the same molecule, the MIC in the test with S. aureus was found to be 12.5 µg/mL; with E. faecalis it was 50 µg/mL; in the test on E. coli it was 200 µg/mL; in the test on P. aeruginosa it was 200 µg/mL.

At AChE, `CC(=O)c1ccc(-n2cc[n+](CCN3CCCC3)c2)cc1.Cl.[Cl-]` [Compound 1c, 1-(4-acetylphenyl)-3-(2-pyrrolidino)ethylimidazolium chloride hydrochloride] yielded a Ki of 8050 ± 720 nM. The AChE inhibition type entry on AChE is recorded as “Uncompetitive”. For the same molecule, the IC50 against AChE worked out at 10500 ± 1080 nM. Moreover, the MIC came to 25 µg/mL in the test with S. aureus, 50 µg/mL in the test with E. faecalis, 50 µg/mL in the test with E. coli and 25 µg/mL in the test with P. aeruginosa.

In turn, `Br.CC(=O)c1ccc(-n2cc[n+](Cc3ccccn3)c2)cc1.[Br-]` [Compound 1d, 1-(4-acetylphenyl)-3-(pyridin-2-yl)methylimidazolium bromide hydrobromide] displayed a Ki at AChE of 800 ± 60 nM. In addition, the AChE inhibition type entry on AChE is “Uncompetitive”. The IC50 against AChE was determined as 1050 ± 70 nM. Also, the MIC in the test with S. aureus is 50 µg/mL; in the test on E. faecalis it was 10 µg/mL; in the test on E. coli it was 50 µg/mL; in the test on P. aeruginosa, 200 µg/mL.

On to `Cl.O=Cc1ccc(-n2cc[n+](CCN3CCOCC3)c2)cc1.[Cl-]` [Compound 2a, 1-(4-formylphenyl)-3-(2-morpholino)ethylimidazolium chloride hydrochloride], for which the affinity on AChE corresponds to a Ki of 660 ± 30 nM. For the same molecule, the AChE inhibition type entry at AChE is given as “Uncompetitive”. Moreover, on AChE, the IC50 turned out to be 870 ± 60 nM. Besides, the MIC in the test on S. aureus came out at 250 µg/mL; with E. faecalis, 250 µg/mL; in the test with E. coli, 200 µg/mL; in the test on P. aeruginosa it was 200 µg/mL.

In the case of `Cl.O=Cc1ccc(-n2cc[n+](CCN3CCCCC3)c2)cc1.[Cl-]` [Compound 2b, 1-(4-formylphenyl)-3-(2-piperidino)ethylimidazolium chloride hydrochloride], the Ki on AChE amounted to 780 ± 50 nM. Moreover, at AChE, the AChE inhibition type result is “Uncompetitive”. This molecule registered an IC50 against AChE of 1020 ± 80 nM. Also, the MIC worked out at 250 µg/mL in the test with S. aureus, 50 µg/mL in the test with E. faecalis, 100 µg/mL in the test with E. coli and 200 µg/mL in the test on P. aeruginosa.

In turn, `Cl.O=Cc1ccc(-n2cc[n+](CCN3CCCC3)c2)cc1.[Cl-]` [Compound 2c, 1-(4-formylphenyl)-3-(2-pyrrolidino)ethylimidazolium chloride hydrochloride] registered an inhibition constant (Ki) at AChE of 3160 ± 240 nM. The AChE inhibition type entry at AChE is on record as “Uncompetitive”. The molecule further gave an IC50 at AChE of 4130 ± 250 nM. Further, the MIC stood at 100 µg/mL in the test on S. aureus, 50 µg/mL with E. faecalis, 200 µg/mL with E. coli and 200 µg/mL in the test with P. aeruginosa.

Molecule `Br.O=Cc1ccc(-n2cc[n+](Cc3ccccn3)c2)cc1.[Br-]` [Compound 2d, 1-(4-formylphenyl)-3-(pyridin-2-yl)methylimidazolium bromide hydrobromide] yielded a Ki at AChE of 630 ± 40 nM. The AChE inhibition type entry on AChE is “Uncompetitive”. At AChE, this molecule displayed an IC50 of 820 ± 60 nM. Moreover, the MIC amounted to 250 µg/mL in the test with S. aureus, 100 µg/mL in the test on E. faecalis, 200 µg/mL in the test with E. coli and 200 µg/mL in the test with P. aeruginosa.
